Laboratory results: ChEMBL document CHEMBL3774377 (Bioorg Med Chem, 2016)

What was measured:
[1] = target: T1, Sodium- and chloride-dependent GABA transporter 1 (Mus musculus, UniProt P31648); assay: Inhibition of mouse GAT1 expressed in HEK293 cells assessed as [3H]GABA uptake preincubated for 25 mins followed by [3H]GABA/unlabeled GABA addition measured after 4 mins by liquid scintillation counting analysis; format: cell-based
[2] = target: T1, Sodium- and chloride-dependent GABA transporter 1; assay: Displacement of NO 711 from mouse GAT1 expressed in HEK293 cell membranes after 40 mins by LC-ESI-MS-MS-based MS binding assay
[3] = target: T2, GABA transporter 4 (Mus musculus) (UniProt P31650); assay: Inhibition of mouse GAT4 expressed in HEK293 cells assessed as remaining [3H]GABA uptake at 100 uM preincubated for 25 mins followed by [3H]GABA/unlabeled GABA addition measured after 4 mins by liquid scintillation counting analysis; format: cell-based
T2 sequence (whole entry): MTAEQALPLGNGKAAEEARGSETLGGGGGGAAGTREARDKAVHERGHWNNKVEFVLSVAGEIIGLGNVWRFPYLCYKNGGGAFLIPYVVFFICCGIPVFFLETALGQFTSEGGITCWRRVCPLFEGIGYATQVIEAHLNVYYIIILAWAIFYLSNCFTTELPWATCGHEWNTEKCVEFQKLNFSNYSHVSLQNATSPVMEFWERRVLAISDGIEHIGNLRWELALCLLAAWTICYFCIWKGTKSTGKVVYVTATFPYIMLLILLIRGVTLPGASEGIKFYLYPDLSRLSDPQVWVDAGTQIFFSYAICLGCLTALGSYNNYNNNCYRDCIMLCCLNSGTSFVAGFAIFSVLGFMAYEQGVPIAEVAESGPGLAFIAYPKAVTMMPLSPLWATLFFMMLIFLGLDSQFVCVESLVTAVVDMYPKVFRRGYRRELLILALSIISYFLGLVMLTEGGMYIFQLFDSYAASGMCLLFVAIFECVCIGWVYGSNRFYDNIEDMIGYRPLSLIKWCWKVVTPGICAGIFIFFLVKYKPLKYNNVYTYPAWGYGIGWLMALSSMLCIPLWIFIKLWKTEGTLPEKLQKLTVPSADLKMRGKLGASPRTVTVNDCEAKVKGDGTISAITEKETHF

[4] = tested on: Sodium- and chloride-dependent betaine transporter (Mus musculus); assay: Inhibition of mouse GAT2 expressed in HEK293 cells assessed as remaining [3H]GABA uptake at 100 uM preincubated for 25 mins followed by [3H]GABA/unlabeled GABA addition measured after 10 mins by liquid scintillation counting analysis
[5] = target: Sodium- and chloride-dependent GABA transporter 1 (Mus musculus) (UniProt P31648); assay: Displacement of NO 711 from mouse GAT1 expressed in HEK293 cell membranes assessed as remaining marker bound to protein at 100 uM after 40 mins by LC-ESI-MS-MS-based MS binding assay
[6] = tested on: Sodium- and chloride-dependent GABA transporter 2 (Mus musculus); assay: Inhibition of mouse GAT3 expressed in HEK293 cells assessed as remaining [3H]GABA uptake at 100 uM preincubated for 25 mins followed by [3H]GABA/unlabeled GABA addition measured after 4 mins by liquid scintillation counting analysis
[7] = target: Sodium- and chloride-dependent GABA transporter 1 (Mus musculus) (UniProt P31648); assay: Inhibition of mouse GAT1 expressed in HEK293 cells assessed as remaining [3H]GABA uptake at 100 uM preincubated for 25 mins followed by [3H]GABA/unlabeled GABA addition measured after 4 mins by liquid scintillation counting analysis; format: cell-based
[8] = target: T2, GABA transporter 4 (Mus musculus); assay: Inhibition of mouse GAT4 expressed in HEK293 cells assessed as remaining [3H]GABA uptake at 1 mM preincubated for 25 mins followed by [3H]GABA/unlabeled GABA addition measured after 4 mins by liquid scintillation counting analysis; format: cell-based
[9] = target: Sodium- and chloride-dependent GABA transporter 1 (Mus musculus) (UniProt P31648); assay: Displacement of NO 711 from mouse GAT1 expressed in HEK293 cell membranes assessed as remaining marker bound to protein at 1 mM after 40 mins by LC-ESI-MS-MS-based MS binding assay
[10] = tested on: Sodium- and chloride-dependent GABA transporter 2 (Mus musculus); assay: Inhibition of mouse GAT3 expressed in HEK293 cells assessed as remaining [3H]GABA uptake at 1 mM preincubated for 25 mins followed by [3H]GABA/unlabeled GABA addition measured after 4 mins by liquid scintillation counting analysis
[11] = target: Sodium- and chloride-dependent GABA transporter 1 (Mus musculus) (UniProt P31648); assay: Inhibition of mouse GAT1 expressed in HEK293 cells assessed as remaining [3H]GABA uptake at 1 mM preincubated for 25 mins followed by [3H]GABA/unlabeled GABA addition measured after 4 mins by liquid scintillation counting analysis; format: cell-based
GABA transporter 4 = target: T3, GABA transporter 4 (Mus musculus, UniProt P31650); assay: Inhibition of mouse GAT4 expressed in HEK293 cells assessed as [3H]GABA uptake preincubated for 25 mins followed by [3H]GABA/unlabeled GABA addition measured after 4 mins by liquid scintillation counting analysis; format: cell-based
T3 sequence (P31650 whole entry): T2 sequence (whole entry)

| IC50 [1] | Ki [2] | Activity [3] | Activity [4] | Activity [5] | Activity [6] | Activity [7] | Structure (SMILES) | further results |
| --- | --- | --- | --- | --- | --- | --- | --- | --- |
| 64.1 µM | 68.1 µM | – | – | – | – | – | O=C(O)[C@H]1CNCC[C@H]1CCC/C=C/c1ccccc1Cc1ccccc1 (racemic) | – |
| – | – | 77.8% | 67.7% | 83.1% | 72.9% | 80% | O=C(O)[C@H]1CNCC[C@H]1CCCC#Cc1ccccc1-c1ccccc1 (racemic) | – |
| – | – | 76.1% | 98.3% | 86.6% | 75.7% | 73.9% | O=C(O)[C@H]1CNCC[C@@H]1CCC/C=C/c1ccccc1-c1ccccc1 (racemic) | – |
| – | – | 92.4% | 85.1% | 79% | 78.1% | 86.3% | O=C(O)[C@H]1CNCC[C@@H]1CC/C=C/c1ccccc1Cc1ccccc1 (racemic) | – |
| – | – | 49.7% | 62.5% | 79.6% | – | 43.9% | O=C(O)[C@H]1CNCC[C@H]1CC/C=C/c1ccccc1Cc1ccccc1 (racemic) | – |
| – | – | 86.9% | 52% | 83.9% | 58.2% | 60.4% | O=C(O)[C@H]1CNCC[C@H]1CCC#Cc1ccccc1-c1ccccc1 (racemic) | – |
| – | 35.4 µM | – | – | – | – | – | O=C(O)[C@H]1CNCC[C@H]1CCCC/C=C/c1ccccc1Cc1ccccc1 (racemic) | – |
| 60.5 µM | 33.2 µM | 84.7% | 88.7% | – | 53.5% | – | O=C(O)[C@H]1CNCC[C@@H]1CC/C=C/c1ccccc1-c1ccccc1 (racemic) | – |
| 34.8 µM | 72.4 µM | 57.9% | 90.8% | – | 53.8% | – | CN1CC[C@H](CCC/C=C/c2ccccc2-c2ccccc2)[C@@H](C(=O)O)C1 (racemic) | – |
| 75.5 µM | 71.8 µM | – | 63.7% | – | – | – | O=C(O)[C@H]1CNCC[C@@H]1CCCC/C=C/c1ccccc1-c1ccccc1 (racemic) | IC50 (GABA transporter 4): 83.6 µM |
| – | – | – | – | 78.5% | – | 60.5% | O=C(O)[C@H]1CNCC[C@@H]1CCCC/C=C/c1ccccc1Cc1ccccc1 (racemic) | – |
| 24.5 µM | 27.4 µM | – | – | – | – | – | O=C(O)[C@H]1CNCC[C@H]1CCCC/C=C/c1ccccc1-c1ccccc1 (racemic) | IC50 (GABA transporter 4): 36.7 µM |
| 24.7 µM | 39.9 µM | 45.7% | – | – | – | – | CN1CC[C@H](CCC/C=C/c2ccccc2Cc2ccccc2)[C@@H](C(=O)O)C1 (racemic) | – |
| 26.5 µM | 14.3 µM | 75.5% | 108% | – | 67.9% | – | CN1CC[C@H](CC/C=C/c2ccccc2-c2ccccc2)[C@@H](C(=O)O)C1 (racemic) | – |
| 66.8 µM | – | 52.5% | 64.8% | 45.9% | 54.5% | – | O=C(O)[C@H]1CNCC[C@H]1CCC/C=C/c1ccccc1-c1ccccc1 (racemic) | – |
| – | – | 63.5% | 81.2% | 76.2% | 55.3% | 68.6% | O=C(O)[C@H]1CNCC[C@H]1CC/C=C/c1ccccc1-c1ccccc1 (racemic) | – |
| 107 µM | 77.1 µM | – | – | – | – | – | O=C(O)[C@H]1CNCC[C@@H]1CCC/C=C/c1ccccc1Cc1ccccc1 (racemic) | – |

More lines, now with the values behind:

| Structure (SMILES) | IC50 [1] | Ki [2] | Activity [3] | Activity [4] | Activity [5] | Activity [6] | Activity [7] | further results |
| --- | --- | --- | --- | --- | --- | --- | --- | --- |
| CN1CC[C@H](CCCC#Cc2ccccc2-c2ccccc2)[C@@H](C(=O)O)C1 (racemic) | 37.4 µM | – | 69.4% | 51.9% | 64.4% | 56.4% | – | – |
| CN1CC[C@H](CCC#Cc2ccccc2Cc2ccccc2)[C@@H](C(=O)O)C1 (racemic) | – | – | 84.4% | 57.5% | 73.9% | 71% | 60.9% | – |
| C#CCCC[C@H]1CCNC[C@@H]1C(=O)O (racemic) | 1150 µM | – | – | – | – | – | – | Activity [8]: 84.9%; Activity [9]: 87.2% |
| C=CCC[C@H]1CCNC[C@@H]1C(=O)O (racemic) | – | – | – | 81.2% | – | – | – | Activity [8]: 86.1%; Activity [9]: 79.9%; Activity [10]: 73.1%; Activity [11]: 63.6% |
| O=C(O)[C@H]1CNCC[C@H]1CCCC#Cc1ccccc1Cc1ccccc1 (racemic) | 40.8 µM | 31 µM | – | 51.1% | – | – | – | IC50 (GABA transporter 4): 62.5 µM |
| CN1CC[C@H](CCCC#Cc2ccccc2Cc2ccccc2)[C@@H](C(=O)O)C1 (racemic) | 25.9 µM | 28.6 µM | 50% | – | – | – | – | – |
| O=C(O)C1CCCN(CCC=C(c2ccccc2)c2ccccc2)C1 (configuration not stated) | – | 0.186 µM | – | – | – | – | – | – |
| C=CCCCC[C@H]1CCNC[C@@H]1C(=O)O (racemic) | 740 µM | 818 µM | – | – | – | – | – | Activity [8]: 89.9% |
| C#CCC[C@H]1CCNC[C@@H]1C(=O)O (racemic) | – | – | – | – | – | – | – | Activity [8]: 90.4%; Activity [9]: 88.9% |
| CN1CC[C@H](CC/C=C/c2ccccc2Cc2ccccc2)[C@@H](C(=O)O)C1 (racemic) | 36.7 µM | 39.8 µM | – | – | – | – | – | – |
| CCCC[C@H]1CCNC[C@@H]1C(=O)O (racemic) | – | – | – | – | – | – | – | Activity [8]: 87.5%; Activity [9]: 91.7%; Activity [11]: 69.9% |
| CN1CC[C@H](CCC#Cc2ccccc2-c2ccccc2)[C@@H](C(=O)O)C1 (racemic) | – | – | 81.1% | 68.4% | 86.5% | 81.9% | 79.8% | – |
| O=C(O)[C@H]1CNCC[C@H]1CCC#Cc1ccccc1Cc1ccccc1 (racemic) | – | – | 63.9% | 68.4% | 82.7% | 53.9% | 70.1% | – |
